Data from ChEMBL document CHEMBL4004877, “Synthesis and biological evaluation of chalcone, dihydrochalcone, and 1,3-diarylpropane analogs as anti-inflammatory agents” (Bioorg Med Chem Lett, 2017).
In brackets after ≈: the same amount, converted by molar mass. Activity calls are given as the source filed them. No cut-off for these calls is given here.

Key:
RAW264.7 [1] = experiment: Antiinflammatory activity in mouse RAW264.7 cells assessed as inhibition of LPS induced iNOS-dependent nitric oxide production at 1.25 ug/ml after 24 hrs by Griess assay relative to control; format: functional; conditions: RAW264.7, 24 h
RAW264.7 [2] = experiment: Antiinflammatory activity in mouse RAW264.7 cells assessed as inhibition of LPS induced iNOS-dependent nitric oxide production at 2.5 ug/ml after 24 hrs by Griess assay relative to control; format: functional; conditions: RAW264.7, 24 h
RAW264.7 [3] = experiment: Antiinflammatory activity in mouse RAW264.7 cells assessed as inhibition of LPS induced iNOS-dependent nitric oxide production at 5 ug/ml after 24 hrs by Griess assay relative to control; format: functional; conditions: RAW264.7, 24 h
RAW264.7 [4] = experiment: Antiinflammatory activity in mouse RAW264.7 cells assessed as inhibition of LPS induced iNOS-dependent nitric oxide production at 10 ug/ml after 24 hrs by Griess assay relative to control; format: functional; conditions: RAW264.7, 24 h
RAW264.7 [5] = experiment: Antiinflammatory activity in mouse RAW264.7 cells assessed as inhibition of LPS induced iNOS-dependent nitric oxide production after 24 hrs by Griess assay; format: functional, cell-based; conditions: RAW264.7, 24 h
[6] = Cytotoxicity against LPS-stimulated mouse RAW264.7 cells assessed as cell viability at 1.25 ug/ml after 24 hrs by MTT assay relative to control; format: cell-based; conditions: LPS-stimulated RAW264.7 cells, read-out: Activity
[7] = Cytotoxicity against LPS-stimulated mouse RAW264.7 cells assessed as cell viability at 2.5 ug/ml after 24 hrs by MTT assay relative to control; format: cell-based; conditions: LPS-stimulated RAW264.7 cells, read-out: Activity
[8] = Cytotoxicity against LPS-stimulated mouse RAW264.7 cells assessed as cell viability at 5 ug/ml after 24 hrs by MTT assay relative to control; format: cell-based; conditions: LPS-stimulated RAW264.7 cells, read-out: Activity
[9] = Cytotoxicity against LPS-stimulated mouse RAW264.7 cells assessed as cell viability at 10 ug/ml after 24 hrs by MTT assay relative to control; format: cell-based; conditions: LPS-stimulated RAW264.7 cells, read-out: Activity
RAW264.7 [10] = experiment: Inhibition of iNOS expression in LPS-stimulated mouse RAW264.7 cells after 24 hrs by Western blot method; format: functional, cell-based
RAW264.7 [11] = experiment: Inhibition of COX2 expression in LPS-stimulated mouse RAW264.7 cells at 2.5 to 10 ug/ml after 24 hrs by Western blot method; format: functional, cell-based
RAW264.7 [12] = experiment: Inhibition of IkappaB-alpha expression in LPS-stimulated mouse RAW264.7 cells at 2.5 to 10 ug/ml preincubated for 1 hr followed by LPS challenge measured after 24 hrs by Western blot method; format: functional, cell-based
Mus musculus [13] = species on record: Mus musculus; experiment: Inhibition of ERK phosphorylation in LPS-stimulated mouse RAW264.7 cells at 2.5 to 10 ug/ml preincubated for 1 hr followed by LPS challenge measured after 24 hrs by Western blot method
Mus musculus [14] = species on record: Mus musculus; experiment: Inhibition of JNK phosphorylation in LPS-stimulated mouse RAW264.7 cells at 2.5 to 10 ug/ml preincubated for 1 hr followed by LPS challenge measured after 24 hrs by Western blot method
[15] = target: MAP kinase p38 (Mus musculus) (UniProt P47811+O08911+Q9WUI1+Q9Z1B7); experiment: Inhibition of p38 phosphorylation in LPS-stimulated mouse RAW264.7 cells at 2.5 to 10 ug/ml preincubated for 1 hr followed by LPS challenge measured after 24 hrs by Western blot method
RAW264.7 [16] = experiment: Effect on non-phosphorylated ERK in LPS-stimulated mouse RAW264.7 cells at 2.5 to 10 ug/ml preincubated for 1 hr followed by LPS challenge measured after 24 hrs by Western blot method; format: cell-based; conditions: raw264.7, 24 h
RAW264.7 [17] = experiment: Effect on non-phosphorylated JNK in LPS-stimulated mouse RAW264.7 cells at 2.5 to 10 ug/ml preincubated for 1 hr followed by LPS challenge measured after 24 hrs by Western blot method; format: cell-based; conditions: raw264.7, 24 h
RAW264.7 [18] = experiment: Effect on non-phosphorylated p38 in LPS-stimulated mouse RAW264.7 cells at 2.5 to 10 ug/ml preincubated for 1 hr followed by LPS challenge measured after 24 hrs by Western blot method; format: cell-based; conditions: raw264.7, 24 h

Question: What does the source list for `COc1ccc(CCCc2ccc(OC)c(OC)c2)c(O)c1`?
Answer: inhibition at 1.25 µg/mL (RAW264.7 [1]): 29.6%; inhibition at 2.5 µg/mL (RAW264.7 [2]): 60.5%; inhibition at 5 µg/mL (RAW264.7 [3]): 69.2%; inhibition at 10 µg/mL (RAW264.7 [4]): 75.5%; IC50 (RAW264.7 [5]): 1.97 µg/mL (≈ 6.52 µM); viability at 24 h, 1.25 ug/ml [6]: 97.9%; viability at 24 h, 2.5 ug/ml [7]: 91.7%; viability at 24 h, 5 ug/ml [8]: 88.9%; viability at 24 h, 10 ug/ml [9]: 44.5%; inhibition (RAW264.7 [10]): Dose-dependent effect; inhibition (RAW264.7 [11]): Active; inhibition (RAW264.7 [12]): inactive; inhibition (Mus musculus [13]): Active; inhibition (Mus musculus [14]): Active; inhibition [15]: Active; Activity (RAW264.7 [16]): Non-Toxic; Activity (RAW264.7 [17]): Non-Toxic; Activity (RAW264.7 [18]): Non-Toxic
